Source: patent publication US8440240B2, “Method for treating ocular demodex” (priority 2005, dated 2013)
Values joined by “and” are separate entries in the source; they are usually repeats but may differ in a detail not shown here. Equal values may be shown once.

Key:
Demodex folliculorum [1] = experiment: In vitro killing: survival time of live adult demodex from epilated lashes in test solutions; conditions: for killing effect on Demodex in words (relative to TTO): in vitro; for ST: survival time of demodex: 150 = still alive (no effect)
Procedure: TT shampoo was from Kato Sales, Inc. (Altamonte Springs, Fla., USA). TTO was diluted with mineral oil into different concentrations.
Under the microscope, if the epilated lash contained live demodex, different solutions were added to the coverslip edge. The movement of demodex body and legs was continuously observed for 150 minutes. The survival time (ST) (Table 2 below) was counted from the time when the solution was added to the time when the movement ceased (See FIG. 1) The average ST tested for a given solution in a number of mites was used to compare the in vitro killing effect. If demodex remained alive at the end of 150 minutes, this value was denoted as no effect. Because demodex in an earlier life stage was more vulnerable, we only tested adult demodex that had 4 pairs of well developed legs and stumpy body. Because demodex buried in cylindrical dandruff (CD) might preclude the killing effect, we only tested demodex of which the whole body was fully exposed to the test solution.

Demodex folliculorum [2] = conditions: Norn 1970; cited from earlier work

C=C(C)[C@H]1CC=C(C)C(=O)C1 [(+)-Carvone]
Killing effect on Demodex (Time in minutes), Average (Demodex folliculorum [1]; 25%): 22.7 min
Killing effect on Demodex (Time in minutes), single mite (Demodex folliculorum [1]; 25%): 25 min and 20 min and 23 min
Killing effect on Demodex (Time in minutes), Average (Demodex folliculorum [1]; 50%): 11.6 min
Killing effect on Demodex (Time in minutes), single mite (Demodex folliculorum [1]; 50%): 13 min and 8 min and 10 min and 11 min and 16 min
Killing effect on Demodex (Time in minutes), Average (Demodex folliculorum [1]; 100%): 4.2 min
Killing effect on Demodex (Time in minutes), single mite (Demodex folliculorum [1]; 100%): 4 min and 5 min and 3 min
killing effect on Demodex in words (relative to TTO) (Demodex folliculorum [1]): as effective as TTO

C=C(C)[C@H]1CC=C(C)CC1 [(+)-Limonene, (R)-(+)-Limonene]
Killing effect on Demodex (Time in minutes), Average (Demodex folliculorum [1]; 97%): 66.8 min
killing effect on Demodex in words (relative to TTO) (Demodex folliculorum [1]): not as effective as TTO

CCO [Alc, alcohol, reference compound]
ST: survival time of demodex (Demodex folliculorum [1]; 75% solution): 150 min
ST: survival time of demodex (Demodex folliculorum [1]; 100% solution, adult mites, observed 150 min, mean±S.D.): 3.9 ± 1.2 min
time to kill demodex (Demodex folliculorum [2]): within several minutes

CC12CCC(CC1)C(C)(C)O2 [Eucalyptol]
Killing effect on Demodex (Time in minutes), Average (Demodex folliculorum [1]; concentration not given): 36.8 min
Killing effect on Demodex (Time in minutes), single mite (Demodex folliculorum [1]; concentration not given): 30 min and 35 min and 40 min and 42 min
killing effect on Demodex in words (relative to TTO) (Demodex folliculorum [1]): not as effective as TTO

CC[C@@H]1C(=O)OC[C@@H]1Cc1cncn1C [Pilo, pilocarpine, reference compound]
Killing effect on Demodex (Time in minutes), Average (Demodex folliculorum [1]; 2%, 150 = no effect): 150 min
Killing effect on Demodex (Time in minutes), single mite (Demodex folliculorum [1]; 2%, 150 = no effect): 150 min
ST: survival time of demodex (Demodex folliculorum [1]; 4% solution): 150 min
ST: survival time of demodex (Demodex folliculorum [1]; 4% solution, listed as Pilocarpine): > 150 min
Killing effect on Demodex (Time in minutes), Average (Demodex folliculorum [1]; 4%, 150 = no effect): 150 min
Killing effect on Demodex (Time in minutes), single mite (Demodex folliculorum [1]; 4%, 150 = no effect): 150 min

CC1=CCC(O)(C(C)C)CC1 (centres unmarked) [Terpinen-4-ol]
killing effect on Demodex in words (relative to TTO) (Demodex folliculorum [1]): active ingredient

c1ccccc1 [benzene]
time to kill demodex (Demodex folliculorum [2]): within several minutes

CCOCC [ether]
time to kill demodex (Demodex folliculorum [2]): within several minutes

povidone iodine [PI, reference compound]
ST: survival time of demodex (Demodex folliculorum [1]; 10% solution, observed 150 min): 150 min

xylol
time to kill demodex (Demodex folliculorum [2]): within several minutes
